What all share (assay): NCI anticancer screen, dose series, 48 h
Test [1] deals with 786-0 renal.
Test [2] relates to CAKI-1 renal.
In test [3] the test system is HOP-62 NSCLC.
The subject of test [4] is HT29 colon.
Test [5] concerns M14 melanoma.
Test [6] has as its system MDA-MB-435.
The subject of test [7] is NCI-H226 lung.
The test system of test [8] is RXF 393 renal.
For test [9], the system named is SF-539 CNS.
The subject of test [10] is UACC-257 melanoma.

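Briefly, cells in 96-well plates were exposed to five compound concentrations for 48 h, and endpoints were estimated by linear interpolation. TGI denotes the concentration required for complete inhibition of growth.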 A value given as a limit tells only on which side of the number the result lay.

Regarding `CCC1([N+](=O)[O-])CN(N=O)C1`, the TGI in test [1], in test [2], in test [3], in test [4], in [5] and in test [6] was more than 100 µM each time. Besides, the TGI in test [7], in test [8], in test [9] and in test [10] was more than 100 µM each time.
With `Clc1ccc(/C(=C/c2ccccc2)Cn2ccnc2)cc1`, the TGI is more than 100 µM in test [1]; more than 100 µM in [2]; more than 100 µM in [3]; more than 100 µM in test [4]; 65.6 µM in test [5]; 67.7 µM in [6]. The TGI is more than 100 µM in test [7], 50.7 µM in test [8], 80.9 µM in test [9] and more than 100 µM in test [10].
Take `CCOC(=O)[C@@H](Cc1ccc(CCl)cc1)NC(C)=O`: the TGI is 40.4 µM in [1]; 68.6 µM in [2]; 75.1 µM in test [3]; more than 100 µM in test [4]; 89.3 µM in [5]; 48.7 µM in test [6]. The TGI was determined as 98.5 µM in test [7], 30.3 µM in test [8], 36.4 µM in test [9] and 40.2 µM in test [10].
In the case of `COc1cc2c(cc1OCc1ccccc1)NC(=O)[C@@H]1CCCN1C2=O`, the TGI in [1], in test [2], in test [3], in test [4], in test [5] and in test [6] was more than 100 µM in each case. The TGI in [7], in test [8], in test [9] and in test [10] was more than 100 µM each time.
As to `CCOC(=O)/C=C/CCC(C)(C)COC(C)=O`, the TGI in [1], in test [2], in test [3], in test [4], in [5] and in test [6] was more than 10 µM each time. Also, the TGI in test [7], in [8], in test [9] and in [10] was more than 10 µM each time.
Regarding `CCc1nc2c(c(N(C)C)c1C(=O)OC)CCc1ccccc1-2`, the TGI in [1] is more than 100 µM; in test [2], more than 100 µM; in test [3], 63.5 µM; in [4], more than 100 µM; in [5] it was 74.2 µM; in test [6], 65.6 µM. Besides, the TGI is 79 µM in test [7], 73.8 µM in test [8], more than 100 µM in test [9] and 68.9 µM in test [10].
Regarding `N#C/C(C(=O)NCc1ccccc1)=C(/N)N1CCCC1`, the TGI in test [1], in test [2], in test [3], in [4], in [5] and in test [6] was more than 100 µM each time. The TGI in test [7], in test [8], in test [9] and in test [10] was more than 100 µM in each case.
Regarding `O=C(NC(C(F)(F)F)(C(F)(F)F)P(=O)(Cc1ccccc1)Cc1ccccc1)C(C(F)(F)F)C(F)(F)F`, the TGI in [1] came out at 34.4 µM; in test [2], 97.1 µM; in test [3], 41.6 µM; in test [4] it was 45.4 µM; in test [5] it was 34.8 µM; in [6], 34.3 µM. Also, the TGI in [7] came out at 32.4 µM; in test [8], 47.6 µM; in [9] it was 43.6 µM; in test [10], 46.5 µM.
On to `Cc1nc2c(=O)n(-c3ccccc3)c(=O)n(-c3ccccc3)c2o1`, for which the TGI in [1], in test [2], in test [3], in test [4], in test [5] and in test [6] was more than 100 µM in each case. The TGI in test [7], in [8], in test [9] and in test [10] was more than 100 µM in each case.
For the compound `CC1=NN2C(=N)/C(=C/c3ccc(F)cc3)C(=O)N=C2S1`, the TGI in test [1], in [2], in test [3], in test [4], in test [5] and in [6] was more than 100 µM throughout. Besides, the TGI in test [7], in test [8], in [9] and in test [10] was more than 100 µM throughout.
`O=c1c2c3c(sc2nc2n1N=C(c1ccc(Br)cc1)CS2)CCCC3`: the TGI in [1], in test [2], in [3], in test [4], in test [5] and in [6] was more than 100 µM in each case. In addition, the TGI in [7], in test [8], in [9] and in test [10] was more than 100 µM throughout.

Values taken from PubChem BioAssay (NCI).
